Measurements published in US20240335429A1, “MOLECULAR GLUE AND SALL4 DEGRADER” (National University of Singapore, priority 2021, published 2024).
Where two headings read alike, the source gives them in different places.

How the values were obtained:
[1] = biological target: T1, IKZF1 (Homo sapiens, UniProt Q13422); assay: Immunoblot of IKZF1 in SNU-398 HCC cells; type: cell-based; settings: SNU-398 cells
T1 construct: with immunoblots in SNU-398 HCC cells; endogenous in cells; host or cells: SNU-398 HCC cells
Procedure: (§1) RIPA buffer containing freshly added protease inhibitors (2 mM PMSF) and protease inhibitor cocktail was used for cell lysis. The lysed cells were incubated for 10 min on ice and subsequently centrifuged at 4° C. for 10 min at 14,000 rpm. The protein concentrations of cell lysates were assessed using Bradford Assay as per manufacturer's instructions. The samples were denatured using 4× Sample buffer at 95° C. for 5 min. The samples were size resolved using polyacrylamide gel (8%) and Mini-PROTEAN Tetra Cell module. The size-resolved proteins were transferred onto PVDF via electroblotting using Mini Trans-Blot® module. The membrane was blocked using 5% BSA in TBST. The membrane was incubated with appropriate primary antibody (overnight) and secondary antibody (1 h). Immobilon Crescendo Western HRP substrate was used for signal development and images were acquired using darkroom development techniques.

[2] = tested on: c-myc; assay: Immunoblot of c-myc (SALL4 downstream target) in SNU-398 cells; type: cell-based, human; settings: Homo sapiens; SNU-398 HCC cells, 24 h treatment; read-out: suppression of SALL4 downstream target c-myc, IC50
Procedure: as §1

[3] = biological target: T2, CRBN (Homo sapiens, UniProt Q96SW2); assay: Cellular Thermal Shift Assay (CETSA) in SNU-398 cell lysates; type: binding; settings: from 51 to 56° C., read-out: overall thermal shift of CRBN
T2 construct: endogenous in cells; host or cells: SNU-398 cell lysate
Procedure: Cells were washed with cold PBS and harvested into 50 mL tubes and centrifuged at 1,200×g for 5 min. For cell lysis, cells were resuspended in 1× NP-40 lysis buffer containing 10 mM Tris-HCl (pH 7.4), 150 mM NaCl, 2.7 mM KCl and 0.4% NP-40, and rotated end-over-end at 4° C. for 30 min. The cell lysate was centrifuged at 20,000 rpm for 10 min at 4° C. and the supernatant was collected. The cell lysate was divided into two aliquots, with one aliquot being treated with QE-18-WG07, and the other aliquot with DMSO control. After specific incubation time at room temperature, the respective lysates were divided into smaller aliquots of 40 μL and heated individually at different temperatures (51-56° C.) for 3 min in a thermal cycler, followed by a 3-min cool-down at room temperature. The heated lysates were centrifuged at 15,000 rpm for 10 min at 4° C. to separate the soluble fractions from the precipitates. The supernatants were transferred to new microtubes and analyzed by SDS-PAGE, followed by western blot analysis described in Example 4. The integrated band intensities were quantified by ImageJ. The thermal curves were analyzed by nonlinear regression using Graph Pad Prism.

[4] = biological target: T3, IKZF3 (Homo sapiens, UniProt Q9UKT9); assay: Immunoblot of IKZF3 in SNU-398 HCC cells; type: cell-based; settings: SNU-398 cells
T3 construct: with immunoblots in SNU-398 HCC cells; endogenous in cells; host or cells: SNU-398 HCC cells
Procedure: as §1

[5] = tested on: SNU-182 cells; assay: CellTiter-Glo viability assay, SNU-182; type: cell-based; settings: Homo sapiens, 72 h
Procedure: (§2) Cells were plated in RPMI culture media (40 μL) in 384-well white, flat-bottom plates (Corning) and incubated at 37° C. in a humidified atmosphere of 5% CO2 overnight. The numbers of cells per well were 1,500 for SNU-398 and SNU-182, 750 for SNU-387, SNU-449, SNU-475 and SNU-423, and 1,000 for H661 and H1299. After overnight incubation, 10 μL of drug (1% DMSO in RPMI) at designed concentrations were added to the cells. The cells were then incubated for 16, 24, 48, 72, or 96 h at 37° C. in a humidified atmosphere of 5% CO2 before CellTiter-Glo reagent (10 μL) was dispensed to the wells. The cells were incubated at room temperature for a minimum of 10 min. After that, luminescence readings were recorded by a Microplate Reader (PHERAstar or Tecan Infinite M200 Pro) according to the manufacturer's instruction for measuring the luminescence.

[6] = tested on: SNU-398 cells; assay: CellTiter-Glo viability assay, SNU-398; type: cell-based, human; settings: for IC50: read-out: IC50 of cell proliferation / viability
Procedure: as §2

[7] = HCC mouse xenograft, tolerability (body, spleen, liver weight); type: in vivo
Procedure: (§3) Animals were maintained, and all animal work were performed following the protocols approved by the Institutional Animal Care and Use Committee. The SNU-398 cell line was cultured as described above in ‘Cell Culture’. To establish the SNU-398 xenografts, NOD.Cg−Prkdc^sc^i^dIl2rg^tm^1^Wjl/Sz (NSG) female mice (6-8 weeks) were anesthetized using 2% isoflurane USP, and 0.5×10^6 SNU-398 cells in 200 μL of 1:1 RPMI:Matrigel were subcutaneously injected to the mouse flanks. When tumors were palpable, mice were randomized to receive either QE treatment or vehicle containing 5% DMSO, 12.5% Ethanol, and 12.5% Cremophor EL in 70% 1× PBS. Freshly prepared vehicle or QE-18-WG07 was administered by intraperitoneal (IP) injection, once daily (qd) at 10 mg/kg in the pilot study and 5, 15, and 45 mg/kg for dose-expansion studies. Before each drug injection, mouse weight and tumor volume were monitored. Mice were euthanized once tumors reached more than 1.5 cm in diameter. The tumors were harvested, imaged and snap-frozen for storage at −80° C. until later use.

[8] = tested on: H661 cells; assay: CellTiter-Glo viability assay, H661; type: cell-based; settings: Homo sapiens
Procedure: as §2

[9] = tested on: SNU-398 xenografts; assay: HCC mouse xenograft, anti-tumor efficacy; type: in vivo; settings: for tumor shrinkage: 15 days
Procedure: as §3

T2 sequence (Q96SW2 whole entry): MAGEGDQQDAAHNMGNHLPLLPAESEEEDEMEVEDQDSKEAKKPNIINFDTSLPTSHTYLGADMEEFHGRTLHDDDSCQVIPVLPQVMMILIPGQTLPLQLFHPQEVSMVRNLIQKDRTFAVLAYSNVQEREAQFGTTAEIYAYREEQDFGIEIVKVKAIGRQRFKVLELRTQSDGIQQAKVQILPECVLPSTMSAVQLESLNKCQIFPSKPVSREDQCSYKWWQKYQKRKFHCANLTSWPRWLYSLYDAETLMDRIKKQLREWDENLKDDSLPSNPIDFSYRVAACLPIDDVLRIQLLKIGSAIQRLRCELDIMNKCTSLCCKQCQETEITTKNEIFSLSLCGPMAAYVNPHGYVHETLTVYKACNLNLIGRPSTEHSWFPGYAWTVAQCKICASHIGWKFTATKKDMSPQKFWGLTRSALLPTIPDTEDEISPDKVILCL
T1 sequence (Q13422 whole entry): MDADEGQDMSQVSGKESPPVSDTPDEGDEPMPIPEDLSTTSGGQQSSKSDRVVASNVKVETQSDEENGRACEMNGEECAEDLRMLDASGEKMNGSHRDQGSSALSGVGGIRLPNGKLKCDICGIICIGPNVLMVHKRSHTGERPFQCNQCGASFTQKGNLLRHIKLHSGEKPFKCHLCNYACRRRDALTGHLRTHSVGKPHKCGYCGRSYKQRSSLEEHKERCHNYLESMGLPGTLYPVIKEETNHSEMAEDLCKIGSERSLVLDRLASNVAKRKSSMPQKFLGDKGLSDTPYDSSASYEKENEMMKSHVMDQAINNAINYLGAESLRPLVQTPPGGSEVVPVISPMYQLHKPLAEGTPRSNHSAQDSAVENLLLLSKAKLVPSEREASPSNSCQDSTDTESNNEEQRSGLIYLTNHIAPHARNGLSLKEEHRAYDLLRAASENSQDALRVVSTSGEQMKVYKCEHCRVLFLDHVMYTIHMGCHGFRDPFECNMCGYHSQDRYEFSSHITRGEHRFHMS
T3 sequence (Q9UKT9 whole entry): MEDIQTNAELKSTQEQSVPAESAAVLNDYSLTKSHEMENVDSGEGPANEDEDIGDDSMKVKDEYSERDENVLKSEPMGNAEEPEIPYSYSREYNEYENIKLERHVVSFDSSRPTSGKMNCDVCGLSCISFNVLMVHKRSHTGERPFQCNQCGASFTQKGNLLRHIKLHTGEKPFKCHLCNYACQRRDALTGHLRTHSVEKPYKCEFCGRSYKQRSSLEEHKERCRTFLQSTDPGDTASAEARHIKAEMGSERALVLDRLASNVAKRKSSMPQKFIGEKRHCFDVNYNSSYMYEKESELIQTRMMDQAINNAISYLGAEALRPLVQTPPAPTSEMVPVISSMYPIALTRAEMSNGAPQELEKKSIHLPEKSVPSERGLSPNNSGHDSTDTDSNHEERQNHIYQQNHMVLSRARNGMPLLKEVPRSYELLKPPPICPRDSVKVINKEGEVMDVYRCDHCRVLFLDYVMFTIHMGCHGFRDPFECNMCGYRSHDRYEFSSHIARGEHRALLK

SMILES: COc1ccccc1NC(=O)Nc1ccc([N+](=O)[O-])cc1O [QE-18-WG07]
- degradation of IKZF1 [1]: did not degrade
- IC50 [2]: ~5120 nM
- ΔTm at 50 µM [3]: ≤ 5 °C
- degradation of IKZF3 [4]: did not degrade
- Emax at 1 µM ([5]; achieved at 1 μM, read-out: maximum growth inhibition Emax): 90 to 100%
- IC50 ([5]; read-out: IC50 of cell viability): 951 nM
- IC50 ([6]; 72 h): 397 nM
- Emax at 1 µM ([6]; Homo sapiens, 72 h, achieved at 1 μM, read-out: maximum growth inhibition Emax): 90 to 100%
- EC50 ([6]; Homo sapiens, 72 h cell viability, read-out: half maximal growth inhibition EC50): 310 nM
- IC50 ([6]; Homo sapiens, SNU-398, 72 h, 72 h): 280 nM
- tolerability (animal weight preservation, normal spleen weight) ([7]; 10 mg/kg daily, 10 days): well tolerated
- weight loss in mice compared to vehicle ([7]; 10 mg/kg q.d., 10 days): did not induce significant weight loss
- tolerability (negligible weight loss, normal spleen and liver weight) ([7]; 45 mg/kg daily, 2 weeks): well tolerated
- weight loss in mice ([7]; 5, 15 and 45 mg/kg q.d., 15 days): did not induce significant weight loss
- Emax at 1 µM ([8]; NCI-H661, 72 h, achieved at 1 μM, read-out: maximum growth inhibition Emax): 90 to 100%
- IC50 ([8]; NCI-H661, 72 h, read-out: IC50 of cell viability): 522 nM
- EC50 ([8]; NCI-H661, 72 h cell viability, read-out: half maximal growth inhibition EC50): 420 nM
- tumor shrinkage ([9]; 5 mg/kg IP daily): 40%
- reduction of tumor sizes vs vehicle control ([9]; 10 mg/kg IP daily, 10 days): 64%
- tumor shrinkage ([9]; 15 mg/kg IP daily): 60%
- tumor shrinkage ([9]; 45 mg/kg IP daily): 70%
